Test results: patent US12605353B2, “PDIA4 inhibitors and use thereof for inhibiting β-cell pathogenesis and treating diabetes” (Academia Sinica, priority 2019, dated 2026)
Where two headings read alike, the source gives them in different places.

Tests used:
Min6 cells [1] = experiment: Glucose-stimulated insulin secretion in Min6 cells (insulin ELISA); assay type: cell-based, mouse; settings: for insulin secretion in β-cells, in words: Min6 β-cells
Description: (§1) (A) Effect of drug candidates on insulin secretion in β-cells. Min6 cells were incubated in serum-free oxygen-saturated Krebs-Ringer bicarbonate (KRB) buffer containing high glucose (16.7 mM), CCF642 and drug candidates for 30 min. The supernatants were collected for insulin ELISA assay. (B) Min6 cells were incubated with PBS, CCF642 and drug candidates, respectively, for 24 h. Following PBS washing, WST-1 was added into each well for additional 20 min incubation.
Min6 cells were grown in complete Dulbecco's modified Eagle medium (DMEM) medium containing 10% fetal bovine serum, 100 units/ml penicillin and 100 µg/ml streptomycin in a 5% CO2 incubator in the presence of 3.3 mM glucose unless indicated otherwise. Min6 cells were pre-incubated in serum-free oxygen-saturated Krebs-Ringer bicarbonate (KRB) buffer containing 3.3 mM glucose at 37° C. for 30 min. The cells (7.5×10^4) were then incubated with KRB buffer containing high glucose (16.7 mM) or low glucose (3.3 mM) for an additional 30 min. The supernatants were collected for insulin ELISA assay.

[2] = Cell viability test (WST-1) in Min6 cells; assay type: cell-based, mouse; settings: mouse
Description: as §1
(§2) Min6 cells were cultured at 37° C. in complete medium. Cell cytotoxicity was determined using WST-1 (4-[3-(4-Iodophenyl)-2-(4-nitrophenyl)-2H-5-tetrazolio]-1,3-benzene Disulfonate) according to the manutkturet's guidelines. Briefly, the cells were grown in a […] containing complete medium in the presence of the indicated compounds for 24 h. Following PBS washing, WST-1 was added into each well for additional 20 min incubation. After removing the medium, the cells in the plate were measured with a SpectraMax i3x reader at 450 nm.

PDIA4 = molecular target: T1, PDIA4 (Homo sapiens, UniProt P13667); experiment: biochemical;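 further: enzymatic activity of PDIA4 read as absorbance at 595 nm, inhibition given as percent decrease relative to vehicle-treated control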
T1 sequence (P13667 21-645): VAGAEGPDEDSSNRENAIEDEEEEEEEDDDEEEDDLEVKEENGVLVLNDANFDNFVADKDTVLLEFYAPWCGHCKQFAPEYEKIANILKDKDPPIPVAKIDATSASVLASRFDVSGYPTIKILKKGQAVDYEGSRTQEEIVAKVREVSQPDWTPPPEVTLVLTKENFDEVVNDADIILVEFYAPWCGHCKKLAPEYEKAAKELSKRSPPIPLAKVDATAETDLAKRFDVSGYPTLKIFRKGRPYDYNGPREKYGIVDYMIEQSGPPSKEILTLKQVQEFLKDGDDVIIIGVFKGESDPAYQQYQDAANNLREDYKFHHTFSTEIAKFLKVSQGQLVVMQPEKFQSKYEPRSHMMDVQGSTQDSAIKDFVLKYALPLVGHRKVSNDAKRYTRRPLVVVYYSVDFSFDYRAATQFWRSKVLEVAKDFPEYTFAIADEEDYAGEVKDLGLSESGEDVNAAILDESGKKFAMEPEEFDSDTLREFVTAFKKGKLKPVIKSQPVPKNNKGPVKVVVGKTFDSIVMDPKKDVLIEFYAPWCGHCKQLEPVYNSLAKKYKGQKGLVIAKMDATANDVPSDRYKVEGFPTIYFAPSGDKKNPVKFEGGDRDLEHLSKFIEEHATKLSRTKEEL
Description: Recombinant PDI proteins PDIA4 (23 pM) was incubated with insulin (0.2 mM) and DTT (0.1 mM) in the presence of vehicle and compounds at the indicated doses for 30 min at 25° C. The mixture was, measured using a SpectraMax i3x reader at 595 nm based on the manufacturer's instructions (Molecular device, CA, USA). Inhibition of the enzymatic activity PDIA4 is calculated by the formula, 100%×(OD595 of vehicle−OD595 of CP)/(OD595 of vehicle) as published previously.

Min6 cells [3] = experiment: Cell viability test (WST-1) in Min6 cells; assay type: cell-based, mouse
Description: as §1, §2

db/db mice = experiment: Anti-diabetes effect in db/db mice (blood glucose); assay type: in vivo, mouse; settings: CPD 8 2.5 mg/kg, metformin 60 mg/kg; for fasting blood glucose (FBG) / postprandial blood glucose (PBG): sitagliptin 30 mg/kg
Description: (A-B) New-onset diabetes, Lepr^db/db mice, are grouped and treated with PBS vehicle (CTR), sitagliptin (STG, 30 Mg/kg), CPD8 (2.5 mg/kg), and a combination of CPD8 (2.5 mg/kg) and metformin […]) (CPD8+Met) for the indicated time. Fasting blood glucose (FBG (A)) and postprandial blood glucose (PBG (B)) of the mice were monitored. The value (n) is number of mice indicated in parentheses.
Moreover, we examined the in vivo anti-diabetes effect of CPD 8, one of drug candidates for Pdia4 inhibition, in db/db mice, a mouse model of type 2 diabetes. […] PBG in db/db mice (FIG. 4B).

[4] = Min6, a mouse β-cells, read-out: EC50 values, insulin-releasing action
[5] = Mus musculus, 0.5 h, Table 5, insulin secretion, Min6 cells, high glucose (16.7 mM), 30 min, read-out: EC50
[6] = Table 5, 24 h, WST-1, read-out: CC50

SMILES | EC50 (Min6 cells [1]; [4]) [nM] | EC50 (Min6 cells [1]; [5]) [nM] | IC50 (PDIA4) [nM] | insulin secretion in β-cells, in words (Min6 cells [1]) | SI (CC50/EC50) (Min6 cells [1]; Table 5, Min6 cells) | CC50 at 24 h [2, 6] [nM] | CC50 at 24 h ([2]; read-out: CC50 values) [nM] | CC50 (Min6 cells [3]; [6]) [nM] | CC50 (Min6 cells [3]; read-out: CC50 values) [nM] | reversal of type 2 diabetes (db/db mice) | fasting blood glucose (FBG) (db/db mice) | postprandial blood glucose (PBG) (db/db mice)
COc1ccc(N2C(=O)/C(=C\c3ccc([N+](=O)[O-])s3)SC2=S)cc1 [CCF642, reference compound] | 250 |  |  | could augment insulin secretion | 95.6 |  |  | 23900 | 23900 |  |  | 
N[C@@H](CC(=O)N1CCn2c(nnc2C(F)(F)F)C1)Cc1cc(F)c(F)cc1F [sitagliptin, reference compound] |  |  |  |  |  |  |  |  |  |  | significantly reduced | significantly reduced

Continued by falling EC50 (Min6 cells [1]; [4]), values first:

EC50 (Min6 cells [1]; [4]) [nM] | EC50 (Min6 cells [1]; [5]) [nM] | IC50 (PDIA4) [nM] | SMILES | insulin secretion in β-cells, in words (Min6 cells [1]) | SI (CC50/EC50) (Min6 cells [1]; Table 5, Min6 cells) | CC50 at 24 h [2, 6] [nM] | CC50 at 24 h ([2]; read-out: CC50 values) [nM] | CC50 (Min6 cells [3]; [6]) [nM] | CC50 (Min6 cells [3]; read-out: CC50 values) [nM] | reversal of type 2 diabetes (db/db mice) | fasting blood glucose (FBG) (db/db mice) | postprandial blood glucose (PBG) (db/db mice)
1550 | 1550 | 210000 | CC#CC#CC#CC#CCCC(CO)O[C@@H]1O[C@H](CO)[C@@H](O)[C@H](O)[C@H]1O (stereo partly shown) [CPD P1, cytopiloyne, reference compound] | could augment insulin secretion | >64.5 | > 100000 | > 100000 |  |  |  |  | 
60 | 60 | 4000 | C#CC(=O)Nc1cc(OC)c(OC)cc1C(=O)O [CPD 8, 4,5-dimethoxy-2-propiolamidobenzoic acid] | could augment insulin secretion | >1666.7 | > 100000 | > 100000 |  |  | can reverse type 2 diabetes | significantly decreased | significantly decreased
5 | 5 | 300 | C#CC(=O)Nc1cc(OC)c(OCCCN(C(=O)C#C)C(=O)c2cnco2)cc1C(=O)OC [58v, methyl 4-methoxy-2-propiolamido-5-(3-(N-propioloyloxazole-5-carboxamido)propoxy)benzoate] | could augment insulin secretion | >20000 | > 100000 | > 100000 |  |  |  |  | 
